Measured values: US7425562B2, “Inhibitors of cruzipain and other cysteine proteases” (Amura Therapeutics Ltd., priority 2001, dated 2008)

Legend:
Type in all cases: biochemical
[1] = molecular target: T1, Cruzipain (Trypanosoma cruzi, UniProt P25779); test: Trypanosoma cruzi cruzipain peptidase activity assay (Ki); settings: wild-type cruzipain from Trypanosoma cruzi Dm28 epimastigotes, pH 6.75, 25±1° C
T1 construct: Wild-type cruzipain, derived from Trypanosoma cruzi Dm28 epimastigotes; tissue Dr. Julio Scharfstein (Instituto de Biofisica Carlos Chagas Filho); host or cells: Trypanosoma cruzi Dm28 epimastigotes
T1 sequence (P25779 123-467): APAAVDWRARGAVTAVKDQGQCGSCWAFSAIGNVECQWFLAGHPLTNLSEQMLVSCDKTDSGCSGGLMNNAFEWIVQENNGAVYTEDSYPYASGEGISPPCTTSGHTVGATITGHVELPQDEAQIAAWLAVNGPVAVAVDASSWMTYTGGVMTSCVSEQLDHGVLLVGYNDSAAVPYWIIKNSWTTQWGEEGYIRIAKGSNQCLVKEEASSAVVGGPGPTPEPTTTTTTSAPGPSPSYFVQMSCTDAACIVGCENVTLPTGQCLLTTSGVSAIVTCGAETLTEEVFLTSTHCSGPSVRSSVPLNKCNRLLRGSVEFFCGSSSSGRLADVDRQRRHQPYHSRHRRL
Description: (§1) Assay protocols were based on literature precedent (Tablel; Barrett, A. J., Rawlings, N. D. and Woessner, J. F., 1998, Handbook of Proteolytic Enzymes, Academic Press, London and references therein) and modified as required to suit local assay protocols. Enzyme was added as required to initiate the reaction and the activity, as judged by the change in fluorescence upon conversion of substrate to product, was monitored over time. All assays were carried out at 25±1° C.
Wild-type cruzipain, derived from Trypanosoma cruzi Dm28 epimastigotes, was obtained from Dr. Julio Scharfstein (Instituto de Biofisica Carlos Chagas Filho, Universidade Federal do R^10 de Janeiro, R^10 de Janeiro, Brazil). Activity assays were carried out in 100 mM sodium phosphate, pH 6.75 containing 1 mM EDTA and 10 mM Loysteine using 2.5 nM enzyme. Ac-Phe-Arg-AMC (KM^app≈12 μM) and D-Val-Leu-Lys-AMC (KM^app≈4 μM) were used as the substrates. Routinely, Ac-FR-AMC was used at a concentration equivalent to KM^app and D-Val-Leu-Lys-AMC was used at a concentration of 25 μM. The rate of conversion of substrate to product was derived from the slope of the increase in fluorescence monitored continuously over time.
(§2) The apparent inhibition constant (Ki) for each compound was determined on the basis that inhibition was reversible and occurred by a pure-competitive mechanism. The Ki values were calculated, from the dependence of enzyme activity as a function of inhibitor concentration, by direct regression analysis (Prism v 3.02) using Equation 2 (Cornish-Bowden, A., 1995.).
(§3) In situations where the apparent dissociation constant (Ki^app) approached the enzyme concentrations, the Ki^app values were calculated using a quadratic solution in the form described by Equation 3 (Morrison, J. F. Trends Biochem. Sci., 7, 102-105, 1982; Morrison, J. F. Biochim. Biophys. Acta, 185, 269-286, 1969; Stone, S. R. and Hofsteenge, J. Biochemistry, 25, 4622-4628, 1986).

[2] = molecular target: T2, Bovine Cathepsin S (Bos taurus, UniProt P25326); test: Cathepsin peptidase activity assay, bovine cathepsin S (Ki); settings: boc-Val-Leu-Lys-AMC, pH 6.5, 25±1° C
T2 construct: purchased CN Biosciences
T2 sequence (P25326 115-331): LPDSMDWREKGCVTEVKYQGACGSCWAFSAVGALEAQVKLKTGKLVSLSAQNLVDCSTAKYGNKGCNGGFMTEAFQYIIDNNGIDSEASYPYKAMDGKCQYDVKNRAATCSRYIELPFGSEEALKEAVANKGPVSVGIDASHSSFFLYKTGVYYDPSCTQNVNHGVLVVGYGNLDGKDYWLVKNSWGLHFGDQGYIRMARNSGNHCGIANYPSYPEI
Description: as §1
(§4) Bovine cathepsin S, human cathepsin L, human cathepsin H and human cathepsin B were obtained from CN Biosciences. Recombinant human cathepsin S, human cathepsin K and human cathepsin X were obtained from Dr. Boris Turk (Josef Stefan Institute, Ljubljana, Slovenia). Unless otherwise stated, all peptidase activity assays were carried out in 10 mM bis-tris-propane (BTP), pH 6.5 containing 1 mM EDTA, 5 mM 2-mercaptoethanol and 1 mM CaCl2. Human cathepsin H activity assays were carried out in 10 mM BTP pH 6.5, 142 mM […], 1 mM CaCl2, 1 mM EDTA, 1 mM DTT, 0.035 mM Zwittergent 3-16. Human cathepsin K assays were carried out in 100 mM sodium acetate; pH 5.5 containing 20 mM L-cysteine and 1 mM EDTA (Bossard, M. J., et. al., J. Biol. Chem., 21, 12517-12524, 1996). Human cathepsin X assays were carried out in 100 mM sodium acetate; pH 5.5 containing 20 mM L-cysteine; 0.05% (w/v) Brij 35 and 1 mM EDTA (Santamaria, I., et. al., J. Biol. Chem., 273, 16816-16823, 1998; Klemencic, J, et al., Eur. J. Biochem., 267, 5404-5412, 2000). […] The rate of conversion of substrate to product was derived from the slope of the increase in fluorescence monitored continuously over time.
as §2, §3

[3] = molecular target: T3, Human Cathepsin L (Homo sapiens, UniProt P07711); test: Cathepsin peptidase activity assay, human cathepsin L (Ki); settings: Ac-Phe-Arg-AMC, pH 6.5, 25±1° C
T3 construct: purchased CN Biosciences
T3 sequence (P07711 114-333): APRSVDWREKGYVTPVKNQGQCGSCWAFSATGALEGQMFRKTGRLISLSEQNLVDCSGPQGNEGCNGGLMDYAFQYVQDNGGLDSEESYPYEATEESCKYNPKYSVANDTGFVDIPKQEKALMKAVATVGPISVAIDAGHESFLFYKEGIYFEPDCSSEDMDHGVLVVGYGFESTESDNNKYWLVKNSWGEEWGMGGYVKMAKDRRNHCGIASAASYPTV
Description: as §1, §4, §2, §3

[4] = molecular target: T4, Human Cathepsin K (Homo sapiens, UniProt P43235); test: Cathepsin peptidase activity assay, human cathepsin K (Ki); settings: pH 5.5, 25±1° C
T4 construct: Dr. Boris Turk (Josef Stefan Institute, Ljubljana, Slovenia)
T4 sequence (P43235 115-329): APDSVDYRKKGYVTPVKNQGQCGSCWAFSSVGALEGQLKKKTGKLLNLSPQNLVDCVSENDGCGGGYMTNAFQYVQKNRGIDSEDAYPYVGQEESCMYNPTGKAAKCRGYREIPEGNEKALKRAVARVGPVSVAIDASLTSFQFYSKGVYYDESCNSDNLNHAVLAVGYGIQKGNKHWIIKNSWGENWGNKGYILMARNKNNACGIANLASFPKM
Description: as §1, §4, §2, §3

Row | SMILES | Ki [1] [µM] | Ki [2] [µM] | Ki [3] [µM] | Ki [4] [µM]
1 | O=C(N[C@@H](CSCc1ccccc1)C(=O)N1CC[C@H]2OCC(=O)[C@H]21)c1ccoc1 [Example 48, (3aS, 6aR) Furan-3-carboxylic Acid [1R-benzylsulfanylmethyl-2-oxo-2-(3-oxo-hexahydrofuro[3,2-b]pyrrol-4-yl)ethyl]amide] | > 25 | 0.3 | > 100 | > 10
2 | CC(C)(C)c1ccc(C(=O)N[C@@H](Cc2ccc(O)cc2)C(=O)N2CC[C@H]3OCC(=O)[C@H]32)cc1 [Example 3, (3aS, 6aR) 4-tert-Butyl-N-[1S-(4-hydroxybenzyl)-2-oxo-2-(3-oxo-hexahydrofuro[3,2-b]pyrrol-4-yl)ethyl]benzamide] | 0.2 | > 100 | > 35 | > 5
3 | CC(C)C[C@H](NC(=O)c1ccc(Oc2ccccc2)cc1)C(=O)N1CC[C@H]2OCC(=O)[C@H]21 [Example 10, (3aS, 6aR) N-[3-methyl-1S-(3-oxo-hexahydrofuro[3,2-b]pyrrole-4-carbonyl)butyl]-4-phenoxybenzamide] | > 5 | > 10 | > 25 | 0.1
4 | O=C(N[C@@H](Cc1ccc(O)cc1)C(=O)N1CC[C@H]2OCC(=O)[C@H]21)c1cccc2ccccc12 [Example 69, (3aS, 6aR) Naphthalene-1-carboxylic Acid [1S-(4-hydroxybenzyl)-2-oxo-2-(3-oxo-hexahydrofuro[3,2-b]pyrrol-4-yl)ethyl]amide] | > 5 | > 10 | 0.8 | > 100
